Our source for the IC50 values is patent US10112950B2, “Substituted imidazo[1,2-a]pyrazines as LSD1 inhibitors” (Incyte Corporation, priority 2014, dated 2018).

This experiment concerns the target LSD-1 enzyme (Homo sapiens (Human), UniProt O60341). Kind of experiment: LANCE LSD1/KDM1A demethylase assay (LSD1 histone demethylase biochemical assay). The following applies: 1 nM LSD-1 enzyme, 1 hour preincubation at 25° C., 0.4 μM Biotin-labeled Histone H3 peptide substrate. As for the experimental part: LSD1 Histone Demethylase Biochemical Assay
LANCE LSD1/KDM1A demethylase assay-10 μL of 1 nM LSD-1 enzyme (ENZO BML-SE544-0050) in the assay buffer (50 mM Tris, pH 7.5, 0.01% Tween-20, 25 mM NaCl, 5 mM DTT) were preincubated for 1 hour at 25° C. with 0.8 μL compound/DMSO dotted in black 384 well polystyrene plates. […] Reactions were stopped by addition of 10 μL 1× LANCE Detection Buffer (PerkinElmer CR97-100) supplemented with 1.5 nM Eu-anti-unmodified H3K4 Antibody (PerkinElmer TRF0404), and 225 nM LANCE Ultra Streptavidin (PerkinElmer TRF102) along with 0.9 mM Tranylcypromine-HCl (Millipore 616431). After stopping the reactions plates were incubated for 30 minutes and read on a PHERAstar FS plate reader (BMG Labtech).
For orientation: Time-resolved FRET reads energy transfer from a long-lived donor to a nearby acceptor.

Some results are limits rather than exact numbers.

The term IC50 denotes the concentration at which inhibition is half-maximal. As to `CN(C)C1CCN(c2nc(-c3ccc(C#N)cc3)c(-c3ccc4c(c3)C(O)CC4)n3ccnc23)CC1` (racemic) [Example 95, 4-[8-[4-(dimethylamino)piperidin-1-yl]-5-(3-hydroxy-2,3-dihydro-1H-inden-5-yl)imidazo[1,2-a]pyrazin-6-yl]benzonitrile], the IC50 is ≤ 50 nM.
The figure for `CN(C)C1CCCN(c2nc(-c3ccc(C#N)cc3)c(-c3ccc(N4CCCC4=O)nc3)n3ccnc23)C1` (stereo not drawn) [Example 99, 4-{8-[3-(dimethylamino)piperidin-1-yl]-5-[6-(2-oxopyrrolidin-1-yl)pyridin-3-yl]imidazo[1,2-a]pyrazin-6-yl}benzonitrile] is ≤ 50 nM; for `Cc1ccc(-c2c(-c3ccc(C#N)cc3)nc(OC[C@@H]3CCNC3)c3nccn23)cc1` [Example 1, 4-{5-(4-methylphenyl)-8-[(3R)-pyrrolidin-3-ylmethoxy]imidazo[1,2-a]pyrazin-6-yl}benzonitrile] it is ≤ 50 nM; for `Cc1ccc(-c2c(-c3ccc(C#N)cc3)nc(OC3CCN(C)C3)c3nccn23)cc1` (stereo not drawn) [Example 7, 4-{5-(4-methylphenyl)-8-[(1-methylpyrrolidin-3-yl)oxy]imidazo[1,2-a]pyrazin-6-yl}benzonitrile] it is ≤ 50 nM.
The figure for `CN1CCC[C@@H](COc2nc(-c3ccc(C#N)cc3)c(-c3cc(F)c4c(c3)C(O)CC4)n3ccnc23)C1` (stereo partly drawn) [Example 79, 4-(5-(7-fluoro-3-hydroxy-2,3-dihydro-1H-inden-5-yl)-8-{[(3R)-1-methylpiperidin-3-yl]methoxy}imidazo[1,2-a]pyrazin-6-yl)benzonitrile] is ≤ 50 nM; for `Cc1ccc(-c2c(-c3ccc(C#N)cc3)nc(OC[C@@H]3CCNC3)c3nc(CCN(C)C)cn23)cc1` [Example 47, 4-{2-[2-(dimethylamino)ethyl]-5-(4-methylphenyl)-8-[(3R)-pyrrolidin-3-ylmethoxy]imidazo[1,2-a]pyrazin-6-yl}benzonitrile] it is ≤ 50 nM.
Turning to `COc1ccc(-c2c(-c3ccc(C#N)cc3)nc(OC[C@@H]3CCNC3)c3nccn23)cc1` [Example 30, 4-{5-(4-methoxyphenyl)-8-[(3R)-pyrrolidin-3-ylmethoxy]imidazol[1,2-a]pyrazin-6-yl}benzonitrile], the IC50 is ≤ 50 nM.
The value for `CN(C)C1CCN(c2nc(-c3ccc(C#N)cc3)c(-c3ccc4c(c3)ncn4C)n3ccnc23)CC1` [Example 106, 4-[8-[4-(dimethylamino)piperidin-1-yl]-5-(1-methyl-1H-benzimidazol-5-yl)imidazo[1,2-a]pyrazin-6-yl]benzonitrile] was ≤ 50 nM.
The figure for `CN(C)C1CCN(c2nc(-c3ccc(C#N)cc3)c(-c3ccc(N4CCCC4=O)nc3)n3ccnc23)CC1` [Example 57, 4-{8-[4-(dimethylamino)piperidin-1-yl]-5-[6-(2-oxopyrrolidin-1-yl)pyridin-3-yl]imidazo[1,2-a]pyrazin-6-yl}benzonitrile] is ≤ 50 nM.
Consider `Cn1ncc2cc(-c3c(-c4ccc(C#N)cc4)nc(OC[C@@H]4CCCN(CCO)C4)c4nccn34)ccc21` [Example 65, 4-[8-{[(3R)-1-(2-hydroxyethyl)piperidin-3-yl]methoxy}-5-(1-methyl-1H-indazol-5-yl)imidazo[1,2-a]pyrazin-6-yl]benzonitrile], for which the IC50 was ≤ 50 nM.
The figure for `Cc1ccc(-c2c(-c3ccc(C#N)cc3)nc(OC[C@@H]3CCCN(C)C3)c3nccn23)c(CO)c1` [Example 90, 4-(5-[2-(hydroxymethyl)-4-methylphenyl]-8-{[(3R)-1-methylpiperidin-3-yl]methoxy}imidazo[1,2-a]pyrazin-6-yl)benzonitrile] is ≤ 50 nM.
The value for `CN1CCN(c2ccc(-c3c(-c4ccc(C#N)cc4)nc(N4CCC(N(C)C)CC4)c4nccn34)cn2)CC1=O` [Example 109, 4-{8-[4-(dimethylamino)piperidin-1-yl]-5-[6-(4-methyl-3-oxopiperazin-1-yl)pyridin-3-yl]imidazo[1,2-a]pyrazin-6-yl}benzonitrile] was ≤ 50 nM.
The value for `Cc1ccc(-c2c(-c3ccc(C#N)cc3)nc(OC[C@@H]3CCCN(C)C3)c3nccn23)cc1CC#N` [Example 91, 4-(5-[3-(cyanomethyl)-4-methylphenyl]-8-{[(3R)-1-methylpiperidin-3-yl]methoxy}imidazo[1,2-a]pyrazin-6-yl)benzonitrile] was ≤ 50 nM; that for `CN(C)C1CCN(c2nc(-c3ccc(C#N)cc3)c(-c3ccc4c(c3)oc(=O)n4C)n3ccnc23)CC1` [Example 59, 4-[8-[4-(dimethylamino)piperidin-1-yl]-5-(3-methyl-2-oxo-2,3-dihydro-1,3-benzoxazol-6-yl)imidazo[1,2-a]pyrazin-6-yl]benzonitrile] was ≤ 50 nM; that for `Cc1ccc(-c2c(-c3ccc(C#N)cc3)nc(OC[C@@H]3CCNC3)c3nc(CO)cn23)cc1` [Example 41, 4-{2-(hydroxymethyl)-5-(4-methylphenyl)-8-[(3R)-pyrrolidin-3-ylmethoxy]imidazol[1,2-a]pyrazin-6-yl}benzonitrile] was ≤ 50 nM.
As to `CN1C(=O)Cc2cc(-c3c(-c4ccc(C#N)cc4)nc(N4CCC(N(C)C)CC4)c4nccn34)ccc21` [Example 98, 4-[8-[4-(dimethylamino)piperidin-1-yl]-5-(1-methyl-2-oxo-2,3-dihydro-1H-indol-5-yl)imidazo[1,2-a]pyrazin-6-yl]benzonitrile], the IC50 was ≤ 50 nM.
The figure for `CN1C(=O)COc2cc(-c3c(-c4ccc(C#N)cc4)nc(N4CCC(N(C)C)CC4)c4nccn34)cnc21` [Example 107, 4-[8-[4-(dimethylamino)piperidin-1-yl]-5-(4-methyl-3-oxo-3,4-dihydro-2H-pyrido[3,2-b][1,4]oxazin-7-yl)imidazo[1,2-a]pyrazin-6-yl]benzonitrile] is ≤ 50 nM.
The value for `COc1ncc(-c2c(-c3ccc(C#N)cc3)nc(OC[C@@H]3CCCN(C)C3)c3nccn23)cc1O` [Example 119, 4-(5-(5-hydroxy-6-methoxypyridin-3-yl)-8-{[(3R)-1-methylpiperidin-3-yl]methoxy}imidazo[1,2-a]pyrazin-6-yl)benzonitrile] was ≤ 50 nM.
